Assays:
[1] = molecular target: T1, human noradrenaline transporter (hNET) (Homo sapiens, UniProt P23975); experiment: cell-based
T1 construct: expressed in transfected cells; host or cells: COS-7 cells (ATCC), transient transfection with metafectene

[2] = molecular target: T1, human noradrenaline transporter (hNET); experiment: biochemical; assay type: binding

T1 sequence (P23975 whole entry): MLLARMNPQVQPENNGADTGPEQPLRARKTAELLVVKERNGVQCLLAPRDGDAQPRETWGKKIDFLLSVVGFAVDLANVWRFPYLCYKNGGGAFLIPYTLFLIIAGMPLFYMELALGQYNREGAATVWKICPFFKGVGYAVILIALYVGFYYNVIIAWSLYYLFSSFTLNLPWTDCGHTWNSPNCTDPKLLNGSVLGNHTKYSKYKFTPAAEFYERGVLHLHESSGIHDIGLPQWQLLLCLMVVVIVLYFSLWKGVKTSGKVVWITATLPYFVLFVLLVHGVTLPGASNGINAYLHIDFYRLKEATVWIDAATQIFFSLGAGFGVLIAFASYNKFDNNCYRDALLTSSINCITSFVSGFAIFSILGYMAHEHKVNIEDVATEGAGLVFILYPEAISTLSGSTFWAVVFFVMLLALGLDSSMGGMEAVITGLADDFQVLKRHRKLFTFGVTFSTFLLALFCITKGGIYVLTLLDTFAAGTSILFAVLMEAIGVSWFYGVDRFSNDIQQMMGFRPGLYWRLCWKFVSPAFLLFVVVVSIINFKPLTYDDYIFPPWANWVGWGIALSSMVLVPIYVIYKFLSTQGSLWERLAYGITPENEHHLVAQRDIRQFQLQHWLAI

SMILES | IC50 [1] | IC50 [2]
CC(C)C[C@@H]1NC(=O)[C@H](CCCCN)NC(=O)[C@H](Cc2ccc(O)cc2)NC(=O)CNC(=O)[C@@H]2CSSC[C@H](NC1=O)C(=O)N[C@@H](Cc1c[nH]cn1)C(=O)N1C[C@H](O)C[C@H]1C(=O)N[C@@H](C(N)=O)CSSC[C@H](NC(=O)[C@@H](NC(=O)CNC(=O)[C@@H]1CCC(=O)N1)C(C)C)C(=O)N2 [SEQ ID NO. 5, Xaa1 Gly Val Cys Cys Gly Tyr Lys Leu Cys His Xaa3 Xaa5] | 0.575 µM | 4.17 µM
COc1ccc(C[C@@H]2NC(=O)CNC(=O)[C@@H]3CSSC[C@H](NC(=O)[C@H](CC(C)C)NC(=O)[C@H](CCCCN)NC2=O)C(=O)N[C@@H](Cc2c[nH]cn2)C(=O)N2C[C@H](O)C[C@H]2C(=O)N[C@H](C(N)=O)CSSC[C@H](NC(=O)[C@@H](NC(=O)CNC(=O)[C@@H]2CCC(=O)N2)C(C)C)C(=O)N3)cc1 [SEQ ID NO. 6, Xaa1 Gly Val Cys Cys Gly Xaa4 Lys Leu Cys His Xaa3 Cys] | 0.214 µM | 1.15 µM
CC(C)C[C@@H]1NC(=O)[C@H](CCCCN)NC(=O)[C@H](Cc2ccc(O)cc2)NC(=O)CNC(=O)[C@@H]2CSSC[C@H](NC1=O)C(=O)N[C@@H](Cc1c[nH]cn1)C(=O)N1C[C@H](O)C[C@H]1C(=O)N[C@H](C(=O)O)CSSC[C@H](NC(=O)[C@@H](NC(=O)CNC(=O)[C@@H]1CCC(=O)N1)C(C)C)C(=O)N2 [SEQ ID NO. 9, Xaa1 Gly Val Cys Cys Gly Tyr Lys Leu Cys His Xaa3 Cys —OH] |  | 8.32 µM

— patent US7851444B2 (priority 2002, dated 2010)
